# Results as given in ChEMBL document CHEMBL3882729, “Receptor-type kinase modulators and methods of use” (2009).
# Key:
# Ephrin type-B receptor 4 = target: T1, Ephrin type-B receptor 4 (Homo sapiens, UniProt P54760); assay: Inhibition of recombinant human N-terminal His6-tagged EphB4 kinase domain (E605 to E890 residues) expressed in baculovirus using poly-AEKY as substrate after 150 mins in presence of gamma33P-ATP by liquid scintillation spectrometry
# T1 sequence (P54760 whole entry): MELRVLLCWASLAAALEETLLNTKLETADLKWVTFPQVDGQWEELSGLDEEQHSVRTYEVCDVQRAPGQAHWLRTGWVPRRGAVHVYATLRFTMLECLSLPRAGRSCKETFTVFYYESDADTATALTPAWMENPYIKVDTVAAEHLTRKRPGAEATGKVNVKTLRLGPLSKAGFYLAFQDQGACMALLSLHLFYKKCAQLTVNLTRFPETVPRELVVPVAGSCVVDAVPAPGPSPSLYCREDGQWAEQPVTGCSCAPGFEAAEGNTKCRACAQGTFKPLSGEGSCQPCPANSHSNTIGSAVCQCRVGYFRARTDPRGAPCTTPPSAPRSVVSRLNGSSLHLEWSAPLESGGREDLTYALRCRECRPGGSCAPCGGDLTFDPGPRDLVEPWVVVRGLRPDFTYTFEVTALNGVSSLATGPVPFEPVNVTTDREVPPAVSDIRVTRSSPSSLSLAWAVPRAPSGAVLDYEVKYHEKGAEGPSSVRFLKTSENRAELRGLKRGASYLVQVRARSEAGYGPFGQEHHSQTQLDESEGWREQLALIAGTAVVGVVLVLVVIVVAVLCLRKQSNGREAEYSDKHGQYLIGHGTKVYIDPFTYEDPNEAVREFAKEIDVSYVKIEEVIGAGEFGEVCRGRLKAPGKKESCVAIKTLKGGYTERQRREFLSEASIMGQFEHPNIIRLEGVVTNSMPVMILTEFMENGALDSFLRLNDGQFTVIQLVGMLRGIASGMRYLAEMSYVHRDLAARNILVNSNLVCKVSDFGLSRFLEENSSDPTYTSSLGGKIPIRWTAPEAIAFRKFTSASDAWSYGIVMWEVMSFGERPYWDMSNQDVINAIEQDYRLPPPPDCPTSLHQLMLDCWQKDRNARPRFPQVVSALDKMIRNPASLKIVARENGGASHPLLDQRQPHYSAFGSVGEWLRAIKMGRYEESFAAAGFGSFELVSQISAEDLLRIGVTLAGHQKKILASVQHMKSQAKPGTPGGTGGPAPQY
# Ephrin type-A receptor 2 = Ephrin type-A receptor 2 (Homo sapiens, UniProt P29317); assay: Inhibition of recombinant human N-terminal His6-tagged EphA2 (N598 to R890 residues) expressed in baculovirus using poly-EY as substrate after 180 mins by luciferase coupled chemiluminescence assay
# [1] = target: Vascular endothelial growth factor receptor 2 (Homo sapiens, UniProt P35968); assay: Inhibition of recombinant human N-terminal GST-fused KDR (D807 to V1356 residues) expressed in baculovirus infected […] insect Sf9 cells using poly-EY as substrate after 240 mins by luciferase coupled chemiluminescence assay
# Chain of Vascular endothelial growth factor receptor 2 (P35968 whole entry, the tested form may be a part): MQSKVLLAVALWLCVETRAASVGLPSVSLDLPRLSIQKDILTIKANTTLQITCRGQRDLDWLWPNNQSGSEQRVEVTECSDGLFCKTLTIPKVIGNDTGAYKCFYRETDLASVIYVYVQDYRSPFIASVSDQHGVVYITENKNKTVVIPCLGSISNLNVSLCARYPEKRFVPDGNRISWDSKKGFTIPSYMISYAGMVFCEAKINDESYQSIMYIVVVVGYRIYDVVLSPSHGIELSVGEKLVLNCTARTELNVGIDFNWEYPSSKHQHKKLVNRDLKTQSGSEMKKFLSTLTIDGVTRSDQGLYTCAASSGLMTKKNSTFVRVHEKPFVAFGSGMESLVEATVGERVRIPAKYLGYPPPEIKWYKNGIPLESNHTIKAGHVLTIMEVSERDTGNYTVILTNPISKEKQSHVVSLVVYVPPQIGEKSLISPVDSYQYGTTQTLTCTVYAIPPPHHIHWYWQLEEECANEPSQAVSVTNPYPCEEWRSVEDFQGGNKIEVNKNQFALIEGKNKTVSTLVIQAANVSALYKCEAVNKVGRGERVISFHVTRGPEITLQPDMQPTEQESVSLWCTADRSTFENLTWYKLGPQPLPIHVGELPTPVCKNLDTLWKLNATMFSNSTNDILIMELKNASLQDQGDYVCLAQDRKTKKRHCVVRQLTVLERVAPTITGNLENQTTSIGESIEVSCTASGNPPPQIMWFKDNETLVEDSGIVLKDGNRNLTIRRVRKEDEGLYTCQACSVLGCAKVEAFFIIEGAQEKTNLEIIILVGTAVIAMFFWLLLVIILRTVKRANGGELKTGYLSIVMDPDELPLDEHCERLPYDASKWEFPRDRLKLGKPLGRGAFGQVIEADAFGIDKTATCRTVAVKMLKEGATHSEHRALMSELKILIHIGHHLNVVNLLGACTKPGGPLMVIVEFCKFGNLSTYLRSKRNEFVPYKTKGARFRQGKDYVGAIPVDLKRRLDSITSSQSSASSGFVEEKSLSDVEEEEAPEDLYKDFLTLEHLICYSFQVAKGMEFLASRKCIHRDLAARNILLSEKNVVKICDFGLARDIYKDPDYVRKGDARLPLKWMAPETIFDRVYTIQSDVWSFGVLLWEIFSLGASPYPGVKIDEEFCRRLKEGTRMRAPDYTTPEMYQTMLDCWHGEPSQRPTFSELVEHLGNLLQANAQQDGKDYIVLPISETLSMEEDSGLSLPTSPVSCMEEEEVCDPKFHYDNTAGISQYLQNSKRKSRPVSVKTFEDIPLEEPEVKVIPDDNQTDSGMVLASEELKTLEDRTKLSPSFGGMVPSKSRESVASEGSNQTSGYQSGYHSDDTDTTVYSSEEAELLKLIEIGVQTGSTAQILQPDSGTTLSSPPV
# Chain of Ephrin type-A receptor 2 (P29317 whole entry, the tested form may be a part): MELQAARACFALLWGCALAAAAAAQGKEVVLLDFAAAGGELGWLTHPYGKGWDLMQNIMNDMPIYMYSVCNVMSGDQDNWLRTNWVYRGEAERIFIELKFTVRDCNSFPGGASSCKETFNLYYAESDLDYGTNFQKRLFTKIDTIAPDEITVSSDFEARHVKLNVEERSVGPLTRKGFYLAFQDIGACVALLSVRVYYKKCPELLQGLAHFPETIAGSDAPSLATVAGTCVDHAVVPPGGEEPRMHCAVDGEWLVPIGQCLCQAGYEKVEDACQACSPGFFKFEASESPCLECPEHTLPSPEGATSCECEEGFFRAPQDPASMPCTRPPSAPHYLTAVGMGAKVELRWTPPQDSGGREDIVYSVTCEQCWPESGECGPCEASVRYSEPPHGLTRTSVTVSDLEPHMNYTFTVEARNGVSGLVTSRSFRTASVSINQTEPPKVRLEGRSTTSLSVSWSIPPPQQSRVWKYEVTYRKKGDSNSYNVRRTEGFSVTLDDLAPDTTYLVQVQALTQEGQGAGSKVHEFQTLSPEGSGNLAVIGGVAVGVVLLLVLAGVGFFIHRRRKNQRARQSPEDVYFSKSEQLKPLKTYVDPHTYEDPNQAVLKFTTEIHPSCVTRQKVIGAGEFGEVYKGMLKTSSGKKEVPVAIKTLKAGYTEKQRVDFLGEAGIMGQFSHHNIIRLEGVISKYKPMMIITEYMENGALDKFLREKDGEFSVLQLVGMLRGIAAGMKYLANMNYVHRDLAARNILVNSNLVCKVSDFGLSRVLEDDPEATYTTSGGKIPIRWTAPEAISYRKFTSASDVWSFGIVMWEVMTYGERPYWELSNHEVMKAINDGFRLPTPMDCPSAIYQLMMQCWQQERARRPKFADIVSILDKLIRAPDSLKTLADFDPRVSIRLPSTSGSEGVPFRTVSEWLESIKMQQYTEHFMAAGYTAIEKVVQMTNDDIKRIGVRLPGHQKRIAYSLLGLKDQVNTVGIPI
Compound,IC50 (Ephrin type-B receptor 4) [nM],IC50 (Ephrin type-A receptor 2) [nM],IC50 [1] [nM]
COc1cc2c(Nc3ccc(N4CCN(C)CC4)c(F)c3)ncnc2cc1O[C@H]1CO[C@H]2[C@@H]1OC[C@@H]2F,1000 to 20000,,1000 to 20000
COc1cc2c(Nc3ccc(Cl)c(Cl)c3)ncnc2cc1OCC1CN(Cc2ccc(F)cc2)CCO1 (stereo not given),50 to 1000,50 to 1000,50 to 1000
COc1cc2c(Nc3cccc(Br)c3C)ncnc2cc1OCC1CN(C)CCO1 (stereo not given),50 to 1000,50 to 1000,50 to 1000
COc1cc2c(Nc3ccc(Cl)c(Cl)c3)ncnc2cc1OCC1CN(Cc2ccccn2)CCO1 (stereo not given),50 to 1000,50 to 1000,< 50
CCC#CCN1CCOC(COc2cc3ncnc(Nc4ccc(Cl)c(Cl)c4)c3cc2OC)C1 (stereo not given),50 to 1000,50 to 1000,50 to 1000
COc1cc(Nc2ncnc3cc(OCC4CN(C)CCO4)c(OC)cc23)c(OC)cc1Cl (stereo not given),50 to 1000,50 to 1000,1000 to 20000
COc1cc2c(Nc3ccc(Cl)c(Cl)c3)ncnc2cc1OCc1cc(F)cc2c1OCOC2,1000 to 20000,1000 to 20000,1000 to 20000
COc1cc2c(Nc3ccc(Cl)c(Cl)c3)ncnc2cc1OCc1noc(C2CCCN2C)n1 (stereo not given),50 to 1000,50 to 1000,50 to 1000
COc1cc2c(Nc3ccc(Cl)c(Cl)c3)ncnc2cc1OCc1csc(CN(C)C)n1,50 to 1000,,
COc1cc2c(Nc3ccc(Cl)c(Cl)c3)ncnc2cc1OCc1csc(CN2CCOCC2)n1,50 to 1000,,
COC(=O)CCCCN1CCOC(COc2cc3ncnc(Nc4ccc(Cl)c(Cl)c4)c3cc2OC)C1 (stereo not given),50 to 1000,50 to 1000,50 to 1000
C=CCCCCCCN1CCOC(COc2cc3ncnc(Nc4ccc(Cl)c(Cl)c4)c3cc2OC)C1 (stereo not given),50 to 1000,50 to 1000,50 to 1000
COc1ccc(-c2nc(COc3cc4ncnc(Nc5ccc(Cl)c(Cl)c5)c4cc3OC)no2)cc1,,1000 to 20000,

# Now from value to compound:
IC50 (Ephrin type-B receptor 4) [nM],IC50 (Ephrin type-A receptor 2) [nM],IC50 [1] [nM],Compound
< 50,50 to 1000,1000 to 20000,CCN1CCN(C(C)=O)CC1COc1cc2ncnc(Nc3ccc(Cl)c(Cl)c3)c2cc1OC (stereo not given)
50 to 1000,50 to 1000,50 to 1000,COc1cc2c(Nc3ccc(F)c(Cl)c3)ncnc2cc1OCC1CN(C)CCO1 (stereo not given)
< 50,< 50,< 50,COc1cc2c(Nc3ccc(Cl)c(Cl)c3)ncnc2cc1OCC1CN(CC2CC2)CCO1 (stereo not given)
< 50,< 50,< 50,COc1cc2c(Nc3ccc(Cl)c(Cl)c3)ncnc2cc1OCC1CN(CCCC#N)CCO1 (stereo not given)
50 to 1000,50 to 1000,50 to 1000,COc1cc2c(Nc3ccc(Cl)c(Cl)c3)ncnc2cc1OCc1nc(CS(=O)(=O)c2ccccn2)no1
< 50,,< 50,COc1cc2c(Nc3ccc(Cl)c(Cl)c3)ncnc2cc1OCC1CN(CC2CCCCO2)CCO1 (stereo not given)
< 50,< 50,< 50,C#CCN1CCOC(COc2cc3ncnc(Nc4ccc(Cl)c(Cl)c4)c3cc2OC)C1 (stereo not given)
< 50,< 50,< 50,COc1cc2c(Nc3ccc(Cl)c(Cl)c3)ncnc2cc1OCC1CN(c2ccncc2)CCO1 (stereo not given)
< 50,50 to 1000,50 to 1000,CCCN1CCOC(COc2cc3ncnc(Nc4ccc(Cl)c(Cl)c4)c3cc2OC)C1 (stereo not given)
< 50,50 to 1000,< 50,COc1cc2c(Nc3ccc(Cl)c(Cl)c3)ncnc2cc1OCC1CN(CCCCCCO)CCO1 (stereo not given)
< 50,,< 50,COCCOc1cc2c(Nc3ccc(Cl)c(Cl)c3)ncnc2cc1OCC1CNCCO1 (stereo not given)
< 50,,,COc1cc2c(Nc3ccc(Cl)c(Cl)c3)ncnc2cc1OCc1csc(CN2CCN(C)CC2)n1
< 50,,,COc1cc2c(Nc3ccc(Cl)c(Cl)c3)ncnc2cc1OCC1CCCCO1 (stereo not given)
< 50,50 to 1000,50 to 1000,COc1cc2c(Nc3ccc(Cl)c(Cl)c3)ncnc2cc1OCC1CN(C(C)=O)CCO1 (stereo not given)
< 50,50 to 1000,,"COc1cc2c(Nc3ccc(Cl)c(Cl)c3)ncnc2cc1OC[C@@H]1O[C@@H](OC)[C@@H](O)[C@H](O)[C@H]1O (single isomer, unassigned)"
